Laboratory results from patent US10457914B2, “Optimized methods for differentiation of cells into cells with hepatocyte and hepatocyte progenitor phenotypes, cells produced by the methods, and methods for using the cells” (priority 2008, dated 2019).

Tested on: rat MAPCs
Assay: In vitro hepatic differentiation of rat MAPCs, read out by qRT-PCR
Assay type: cell-based
Method: Undifferentiated MAPCs were expanded at large scale until several million cells were obtained. Cells then were plated at 50,000-60,000 cells/cm^2 in Matrigel (2%) coated wells. Initially, cells were cultured in expansion medium until they reached 80-90% confluency 16 hours later. Then, cells were washed twice with PBS and the medium was switched to differentiation medium. Basal differentiation medium consisted of DMEM (60%), MCDB (40%), ascorbic acid (IX), penicillin/streptomycin (1×), beta-mercaptoethanol, ITS (0.25×), LA-BSA (0.25×) and dexamethasone (10^-6M). Understanding the molecular signals favoring liver development is essential for the development of a logical in vitro differentiation protocol to modulate stem cell differentiation towards the hepatic fate. With this in mind, different cytokines at variable concentrations and chronological orders were investigated for their hepatocyte inducing capacity in […]. Cytokines tested included Nodal, its co-receptor Cripto, ActivinA, Wnt3a, BMP4, bFGF, aFGF, FGF8b, EGF, Nicotinamide, heparan sulphate proteoglycan, Oncostatin M, HGF and Follistatin. All cytokines were purchased from R&D, Minneapolis, USA. Apart from the cytokines, medium components also play an important role in guiding cells towards a specific fate. […]

With “insulin: medium component (ITS); a lower amount was used to avoid adipogenesis” the “expression of mature markers (albumin, TAT)” value (high concentration of dexamethasone together with low concentration of insulin in differentiation medium) was “enhanced expression of some mature markers”.

B1: Wnt3a: recombinant cytokine, hepatic differentiation factor, 50 ng/ml in step 1 (protein, UniProt P56704 19-352, looked up)
Protein Wnt-3a: SYPIWWSLAVGPQYSSLGSQPILCASIPGLVPKQLRFCRNYVEIMPSVAEGIKIGIQECQHQFRGRRWNCTTVHDSLAIFGPVLDKATRESAFVHAIASAGVAFAVTRSCAEGTAAICGCSSRHQGSPGKGWKWGGCSEDIEFGGMVSREFADARENRPDARSAMNRHNNEAGRQAIASHMHLKCKCHGLSGSCEVKTCWWSQPDFRAIGDFLKDKYDSASEMVVEKHRESRGWVETLRPRYTYFKVPTERDLVYYEASPNFCEPNPETGSFGTRDRTCNVSSHGIDGCDLLCCGRGHNARAERRREKCRCVFHWCCYVSCQECTRVYDVHTCK
In the case of B1, the induction of differentiation (serum-free conditions, in the complete absence of serum cell death occurred) is reported as “differentiation was induced”.
